Source: patent US12612409B2, “Pyrrolopyrimidines as CFTR potentiators” (Cystic Fibrosis Foundation, priority 2016, dated 2026)

Tests used:
[1] = biological target: T1, CFTR in F508del/F508del primary CF hBE cells (Homo sapiens, UniProt P13569, DEL508-508); test: Ussing chamber electrophysiology assay of CFTR potentiation in F508del/F508del CF bronchial epithelial cells (27° C.); assay type: cell-based
T1 construct: Primary cystic fibrosis human bronchial epithelial (CF hBE) cells were expanded and cultured; endogenous in cells; host or cells: primary CF human bronchial epithelial cells, genotype F508del/F508del
T1 sequence (P13569 with tags, fused parts or gaps DEL508-508): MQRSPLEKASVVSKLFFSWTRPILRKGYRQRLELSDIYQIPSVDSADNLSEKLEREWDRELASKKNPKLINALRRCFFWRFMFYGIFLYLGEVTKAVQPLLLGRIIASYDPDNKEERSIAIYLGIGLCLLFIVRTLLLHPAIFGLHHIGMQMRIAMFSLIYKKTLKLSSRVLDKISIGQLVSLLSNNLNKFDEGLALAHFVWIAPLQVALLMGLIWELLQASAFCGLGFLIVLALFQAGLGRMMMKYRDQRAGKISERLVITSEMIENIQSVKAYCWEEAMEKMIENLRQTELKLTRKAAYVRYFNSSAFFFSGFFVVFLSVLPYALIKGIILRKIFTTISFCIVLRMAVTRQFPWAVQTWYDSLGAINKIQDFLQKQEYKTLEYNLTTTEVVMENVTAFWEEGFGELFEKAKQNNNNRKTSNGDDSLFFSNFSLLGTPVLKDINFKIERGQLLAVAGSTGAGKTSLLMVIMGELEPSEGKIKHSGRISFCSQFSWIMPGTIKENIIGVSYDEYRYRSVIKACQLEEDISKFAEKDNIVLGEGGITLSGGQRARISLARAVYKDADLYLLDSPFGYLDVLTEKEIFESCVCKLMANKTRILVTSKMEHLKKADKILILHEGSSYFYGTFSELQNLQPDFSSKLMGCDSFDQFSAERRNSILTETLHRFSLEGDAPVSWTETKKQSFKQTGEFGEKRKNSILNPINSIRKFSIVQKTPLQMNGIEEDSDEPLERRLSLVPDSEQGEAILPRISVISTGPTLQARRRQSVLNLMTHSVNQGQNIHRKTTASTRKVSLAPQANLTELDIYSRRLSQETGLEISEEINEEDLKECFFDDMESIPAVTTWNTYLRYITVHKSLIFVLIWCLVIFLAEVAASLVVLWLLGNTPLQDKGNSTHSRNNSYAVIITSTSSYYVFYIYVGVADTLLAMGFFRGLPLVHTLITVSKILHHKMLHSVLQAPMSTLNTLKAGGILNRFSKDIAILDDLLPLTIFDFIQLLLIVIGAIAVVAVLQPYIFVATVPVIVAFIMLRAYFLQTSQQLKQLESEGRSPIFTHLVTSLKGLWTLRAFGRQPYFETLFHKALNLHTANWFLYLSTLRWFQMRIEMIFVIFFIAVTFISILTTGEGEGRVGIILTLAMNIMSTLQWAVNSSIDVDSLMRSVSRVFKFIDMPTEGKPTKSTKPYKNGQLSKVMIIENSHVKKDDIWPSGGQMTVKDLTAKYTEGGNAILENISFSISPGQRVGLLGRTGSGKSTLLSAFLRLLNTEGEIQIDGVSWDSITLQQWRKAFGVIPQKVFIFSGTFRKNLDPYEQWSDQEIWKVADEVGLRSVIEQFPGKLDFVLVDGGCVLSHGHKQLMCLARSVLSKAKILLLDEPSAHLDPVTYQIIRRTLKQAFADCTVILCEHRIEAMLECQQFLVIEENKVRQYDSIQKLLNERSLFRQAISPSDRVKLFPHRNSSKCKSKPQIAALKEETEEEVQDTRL
How it was run: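 Well-differentiated primary CF hBE cells (>30 days air/liquid interface) in Ussing chambers, HEPES saline both sides, voltage clamped to zero. Amiloride 30 uM, forskolin 10 uM, four rising compound concentrations, then CFTRinh-172 20 uM added at 20-25 min intervals. Short-circuit current scaled to DMSO (0%) and a positive control potentiator maximum (100%).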

[2] = biological target: T2, recombinant F508del V470 CFTR in Fischer rat thyroid (FRT) cells (Homo sapiens, UniProt P13569, DEL508-508); test: FRT ion flux assay of F508del CFTR potentiation; assay type: cell-based; conditions: FRT cells expressing F508del V470 CFTR, forskolin 20 uM, 27° C. pre-incubation
T2 construct: expressed in transfected cells
T2 sequence (P13569 with tags, fused parts or gaps DEL508-508): as above
How it was run: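 FRT cells co-expressing F508del V470 CFTR and halide-sensitive YFP, temperature-corrected at 27° C for 16-24 h, then treated 30 min with compound plus 20 uM forskolin. Iodide addition quenches YFP, read after ~21 s; ratio scaled to DMSO (0%) and positive control potentiator (100%).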

SMILES	EC50 [1] [nM]	EC50 [2] [nM]
COc1ccc(-c2cn(Cc3cn(-c4ccccc4F)nn3)c3ncnc(N)c23)cc1 [Example 85, 7-{[1-(2-Fluorophenyl)-1H-1,2,3-triazol-4-yl]methyl}-5-(4-methoxyphenyl)-7H-pyrrolo[2,3-d]pyrimidin-4-amine]	56.9	73.4
CCC(c1cn(-c2ccccc2F)nn1)n1cc(-c2ccc(Cl)cc2)c2c(N)ncnc21 (single isomer, unassigned; enantiomer 1) [Example 131, 5-(4-Chlorophenyl)-7-{1-[1-(2-fluorophenyl)-1H-1,2,3-triazol-4-yl]propyl}-7H-pyrrolo[2,3-d]pyrimidin-4-amine, enantiomer 1]	282	623
CCC(c1cn(-c2ccc(F)cc2)nn1)n1cc(-c2cncnc2OC)c2c(N)ncnc21 (single isomer, unassigned; enantiomer 2) [Example 150, (−) 7-{1-[1-(4-Fluorophenyl)-1H-1,2,3-triazol-4yl]propyl}-5-(4-methoxypyrimidin-5-yl)-7H-pyrrolo[2,3-d]pyrimidin-4-amine, enantiomer 2]	926	298
COc1ncccc1-c1cn(Cc2cnc(-c3ccccc3F)[nH]2)c2ncnc(N)c12 [Example 193, 7-{[2-(2-Fluorophenyl)-1H-imidazol-5-yl]methyl}-5-(2-methoxypyridin-3-yl)-7H-pyrrolo[2,3-d]pyrimidin-4-amine]	117	43.8
COc1ncccc1-c1cn(Cc2cnn(-c3c(F)cccc3F)c2)c2ncnc(N)c12 [Example 286, 7-{[1-(2,6-Difluorophenyl)-1H-pyrazol-4-yl]methyl}-5-(2-methoxypyridin-3-yl)-7H-pyrrolo[2,3-d]pyrimidin-4-amine]	176	81
CC(c1cn(-c2ccccc2F)nn1)n1cc(-c2cccc(C(F)(F)F)c2)c2c(N)ncnc21 (stereo not shown) [Example 97, 7-{1-[1-(2-Fluorophenyl)-1H-1,2,3-triazol-4-yl]ethyl}-5-[3-(trifluoromethyl)phenyl]-7H-pyrrolo[2,3-d]pyrimidin-4-amine]	164	231
Nc1ncnc2c1c(-c1ccc(Cl)cc1)cn2Cc1ncc(-c2ccccc2F)[nH]1 [Example 285, 5-(4-Chlorophenyl)-7-{[5-(2-fluorophenyl)-1H-imidazol-2-yl]methyl}-7H-pyrrolo[2,3-d]pyrimidin-4-amine]	3500	3690
COc1ncccc1-c1cn(C(C)c2cn(-c3ccccc3F)nn2)c2ncnc(N)c12 (single isomer, unassigned; enantiomer 2) [Example 114, (+) 7-{1-[1-(2-Fluorophenyl)-1H-1,2,3-triazol-4-yl]ethyl}-5-(2-methoxypyridin-3-yl)-7H-pyrrolo[2,3-d]pyrimidin-4-amine, enantiomer 2]	75.8	36.2
Cc1ccccc1-c1cc(C(C)n2cc(-c3ccc(Cl)cc3)c3c(N)ncnc32)on1 (stereo not shown) [Example 266, 5-(4-Chlorophenyl)-7-{1-[3-(2-methylphenyl)-1,2-oxazol-5-yl]ethyl}-7H-pyrrolo[2,3-d]pyrimidin-4-amine]	253	138
CCC(c1cn(-c2ccccc2)nn1)n1cc(-c2cnc(C(F)(F)F)nc2)c2c(N)ncnc21 (single isomer, unassigned; enantiomer 2) [Example 130, 7-[1-(1-Phenyl-1H-1,2,3-triazol-4-yl)propyl]-5-[2-(trifluoromethyl)pyrimidin-5-yl]-7H-pyrrolo[2,3-d]pyrimidin-4-amine, enantiomer 2]	187	234
CC(c1cn(-c2ncccc2F)nn1)n1cc(-c2ccc(Cl)cc2)c2c(N)ncnc21 (stereo not shown) [Example 287, 5-(4-Chlorophenyl)-7-{1-[1-(3-fluoropyridin-2-yl)-1H-1,2,3-triazol-4-yl]ethyl}-7H-pyrrolo[2,3-d]pyrimidin-4-amine]	254	112
COc1ncccc1-c1cn(C(C)c2cn(-c3ccccc3F)nn2)c2ncnc(N)c12 (single isomer, unassigned) [Example 113, 7-{1-[1-(2-Fluorophenyl)-1H-1,2,3-triazol-4-yl]ethyl}-5-(2-methoxypyridin-3-yl)-7H-pyrrolo[2,3-d]pyrimidin-4-amine]	818	826
COc1ncncc1-c1cn(Cc2cn(-c3ccccc3F)nn2)c2nc(C)nc(N)c12 [Example 203, 7-{[1-(2-fluorophenyl)-1H-1,2,3-triazol-4-yl]methyl}-5-(4-methoxypyrimidin-5-yl)-2-methyl-7H-pyrrolo[2,3-d]pyrimidin-4-amine]	2530	1610
CCC(c1cnn(-c2ccccc2F)c1)n1cc(-c2cnc(C(F)(F)F)nc2)c2c(N)ncnc21 (single isomer, unassigned; enantiomer 2) [Example 176, 7-{(1-[1-(2-Fluorophenyl)-1H-pyrazol-4-yl]propyl}-5-[2-(trifluoromethyl)pyrimidin-5-yl]-7H-pyrrolo[2,3-d]pyrimidin-4-amine, enantiomer 2]	106	204
CCC(c1cn(-c2cc(C(F)(F)F)ccn2)nn1)n1cc(-c2cncnc2OC)c2c(N)ncnc21 (stereo not shown) [Example 242, 5-(4-Methoxypyrimidin-5-yl)-7-(1-{1-[4-(trifluoromethyl)pyridin-2-yl]-1H-1,2,3-triazol-4-yl]propyl}-7H-pyrrolo[2,3-d]pyrimidin-4-amine]	205	378

The next compounds have a lower EC50 [1] than those just listed; values first:

EC50 [1] [nM]	EC50 [2] [nM]	SMILES
3.46	15.3	CCC(c1cn(-c2ccccc2F)nn1)n1cc(-c2nccnc2OC)c2c(N)ncnc21 (single isomer, unassigned; enantiomer 2) [Example 136, (+) 7-{1-[1-(2-Fluorophenyl)-1H-1,2,3-triazol-4-yl]propyl}-5-(3-methoxypyrazin-2-yl)-7H-pyrrolo[2,3-d]pyrimidin-4-amine, enantiomer 2]
4.58	5.02	CCC(c1cn(-c2ccccc2F)nn1)n1cc(-c2ccc(OC(F)F)nc2)c2c(N)ncnc21 (single isomer, unassigned; enantiomer 2) [Example 142, (+) 5-[6-(Difluoromethoxy)pyridin-3-yl]-7-{1-[1-(2-fluorophenyl)-1H-1,2,3-triazol-4-yl]propyl}-7H-pyrrolo[2,3-d]pyrimidin-4-amine, enantiomer 2]
30.6	110	CC(c1cnc(-c2ccccc2F)[nH]1)n1cc(-c2ccc(-n3nccn3)cc2)c2c(N)ncnc21 (stereo not shown) [Example 70, 7-{1-[2-(2-Fluorophenyl)-1H-imidazol-5-yl]ethyl}-5-[4-(2H-1,2,3-triazol-2-yl)phenyl]-7H-pyrrolo[2,3-d]pyrimidin-4-amine]
3.36	9.17	CCC(c1cnn(-c2ccccc2F)c1)n1c(C#N)c(-c2cnc(C(F)(F)F)nc2)c2c(N)ncnc21 (single isomer, unassigned) [Example 3, 4-Amino-7-{1-[1-(2-fluorophenyl)-1H-pyrazol-4-yl]propyl}-5-[2-(trifluoromethyl)pyrimidin-5-yl]-7H-pyrrolo[2,3-d] pyrimidine-6-carbonitrile]
22.7	478	Nc1ncnc2c1c(-c1ccc(Cl)cc1)cn2Cc1cc(C2CCCCC2)no1 [Example 269, 5-(4-Chlorophenyl)-7-[(3-cyclohexyl-1,2-oxazol-5-yl)methyl]-7H-pyrrolo[2,3-d]pyrimidin-4-amine]
23.1	9.97	Cc1c(C(C)n2cc(-c3cnc(C(F)(F)F)nc3)c3c(N)ncnc32)nnn1-c1ccccc1F (single isomer, unassigned; enantiomer 1) [Example 179, 7-{1-[1-(2-Fluorophenyl)-5-methyl-1H-1,2,3-triazol-4-yl]ethyl}-5-[2-(trifluoromethyl)pyrimidin-5-yl]-7H-pyrrolo[2,3-d]pyrimidin-4-amine, enantiomer 1]
50.5	21.6	CC(c1cn(-c2ccc(F)cc2F)nn1)n1cc(-c2cnc(C(F)(F)F)nc2)c2c(N)ncnc21 (single isomer, unassigned; enantiomer 1) [Example 123, 7-{1-[1-(2,4-Difluorophenyl)-1H-1,2,3-triazol-4-yl]ethyl}-5-[2-(trifluoromethyl)pyrimidin-5-yl]-7H-pyrrolo[2,3-d]pyrimidin-4-amine, enantiomer 1]
16.3	13.5	N#Cc1c(-c2cnc(C(F)(F)F)nc2)c2c(N)ncnc2n1Cc1cn(-c2ccccc2F)nn1 [Example 37]
28	40.9	CC(c1cn(-c2ccccc2F)nn1)n1cc(-c2ccc(Cl)c(F)c2)c2c(N)ncnc21 (stereo not shown) [Example 98, 5-(4-Chloro-3-fluorophenyl)-7-{1-[1-(2-fluorophenyl)-1H-1,2,3-triazol-4-yl]ethyl}-7H-pyrrolo[2,3-d]pyrimidin-4-amine]
38.2	41.3	CSc1ccc(-c2cn(C(C)c3cn(-c4ccccc4F)nn3)c3ncnc(N)c23)cc1 (stereo not shown) [Example 88, 7-{1-[1-(2-Fluorophenyl)-1H-1,2,3-triazol-4-yl]ethyl}-5-[4-(methylsulfanyl)phenyl]-7H-pyrrolo[2,3-d]pyrimidin-4-amine]
49	15.6	Nc1ncnc2c1c(-c1cccnc1OC(F)F)cn2Cc1cn(-c2ccccc2F)nn1 [Example 196, 5-[2-(Difluoromethoxy)pyridin-3-yl]-7-{[1-(2-fluorophenyl)-1H-1,2,3-triazol-4-yl]methyl}-7H-pyrrolo[2,3-d]pyrimidin-4-amine]
